3 compounds from patent US6780650B2 (priority 2000, dated 2004) can be followed below.

Assay [1] has as its target T1, hVR1 receptor (Homo sapiens, UniProt Q8NER1).
T1 construct: expressed in transfected cells; host or cells: HEK 293 (HEK 293-hVR1, zeocin-selected); membranes
It counts as binding. The following applies: pH 8.

For assay [2], the target named is T1, hVR1 receptor. The note with it: read-out: IC50, inhibition of [^3H]RTX binding to hVR1 receptor.
Assay [3] concerns the target T1, hVR1 receptor. It counts as binding. The following applies: for Kd: read-out: Kd of [^3H]RTX binding to hVR1 receptor.

Like-named read-outs stand apart in the source and are kept apart here.

Broadly, the IC50 is the concentration that inhibits the measured activity by half. A word on the Kd: it is the constant that tells how readily two partners part at equilibrium.

T1 sequence (Q8NER1 whole entry): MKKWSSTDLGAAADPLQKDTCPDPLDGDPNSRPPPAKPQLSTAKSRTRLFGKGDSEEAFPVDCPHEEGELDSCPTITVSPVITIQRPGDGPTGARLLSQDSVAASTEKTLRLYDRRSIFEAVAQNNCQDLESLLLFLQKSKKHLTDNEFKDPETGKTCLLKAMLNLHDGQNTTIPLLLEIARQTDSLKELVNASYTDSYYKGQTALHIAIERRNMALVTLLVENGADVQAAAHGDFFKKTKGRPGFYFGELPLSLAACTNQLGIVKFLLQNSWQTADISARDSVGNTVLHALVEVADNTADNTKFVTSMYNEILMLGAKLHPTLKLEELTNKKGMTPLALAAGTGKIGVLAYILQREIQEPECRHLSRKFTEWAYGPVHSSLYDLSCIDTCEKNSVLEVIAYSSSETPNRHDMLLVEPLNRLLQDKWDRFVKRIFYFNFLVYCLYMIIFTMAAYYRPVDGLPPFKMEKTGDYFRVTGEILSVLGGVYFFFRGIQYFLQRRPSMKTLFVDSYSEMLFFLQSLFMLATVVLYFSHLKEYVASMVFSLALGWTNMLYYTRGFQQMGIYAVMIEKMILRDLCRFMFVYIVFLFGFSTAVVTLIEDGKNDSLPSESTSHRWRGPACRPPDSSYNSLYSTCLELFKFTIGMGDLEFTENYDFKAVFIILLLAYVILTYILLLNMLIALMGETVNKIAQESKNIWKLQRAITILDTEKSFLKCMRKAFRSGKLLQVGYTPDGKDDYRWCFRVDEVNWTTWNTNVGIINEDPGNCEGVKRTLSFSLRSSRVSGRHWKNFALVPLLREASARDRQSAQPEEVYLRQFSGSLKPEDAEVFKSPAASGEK

As to `O=C(O)CN(CCOCCOCCN(CC(=O)O)CC(=O)O)CC(=O)O` [EGTA], the “inhibition of [^3H]RTX binding” value at hVR1 receptor [1] was 70%.
`C=C(C)[C@]12C[C@@H](C)[C@@]34O[C@](Cc5ccccc5)(O[C@@H]1[C@@H]3C=C(COC(=O)Cc1ccc(O)c(OC)c1)C[C@]1(O)C(=O)C(C)=C[C@@H]41)O2` [Resiniferatoxin]: the IC50 came out at 0.78 ± 0.15 nM at hVR1 receptor [2] (pH 7.4) and 0.25 ± 0.03 nM at hVR1 receptor [2] (pH 8.6).
On to `C=C(C)[C@]12C[C@@H](C)[C@@]34O[C@](Cc5ccccc5)(O[C@@H]1[C@@H]3C=C(COC(=O)Cc1ccc(O)c(OC)c1)C[C@]1(O)C(=O)C(C)=C[C@@H]41)O2` [[^3H]RTX, [^3H]resiniferatoxin], for which the Kd on hVR1 receptor [3] (pH 5.1) was found to be 6.62 ± 5.58 nM; at hVR1 receptor [3] (pH 7.4), 0.65 ± 0.12 nM; at hVR1 receptor [3] (pH 8.6), 0.18 ± 0.04 nM; at hVR1 receptor [3] (pH 9.6), 0.6 ± 0.31 nM. The “Bmax of [^3H]RTX binding to hVR1 receptor” value at hVR1 receptor [3] (pH 7.4) was 928 ± 53 fmol/mg protein; on hVR1 receptor [3] (pH 8.6), 869 ± 41 fmol/mg protein; at hVR1 receptor [3] (pH 9.6), 661 ± 127 fmol/mg protein.
